The values below come from patent US9683025B2, “Methods and compositions for treating cancer and inflammatory diseases” (The Regents of the University of Colorado, A Body Corporate, priority 2013, dated 2017).

Like-named read-outs stand apart in the source and are kept apart here. Where a SMILES comes first, the peptide text is derived from it. Where no end group is shown, it is not given here.

Assay [1] addresses CtBP-E1A interaction (Homo sapiens, UniProt Q13363). Description: CtBP-E1A interaction inhibition (AlphaScreen / fluorescence polarization competition assay). The assay is classed as binding. As for the experimental part: The ability of peptides to inhibit CtBP binding can be monitored by two biochemical assays. An AlphaScreen assay (Perkin-Elmer) was developed that is capable of detecting the CtBP-E1A interaction. Purified GST-E1A and 6xHis-CtBP are incubated with glutathione-conjugated donor beads and nickel-chelated acceptor beads respectively. The interaction between CtBP and E1A brings the donor and acceptor beads in close proximity, which produces a fluorescence signal after laser excitation and can be detected using the EnVision plate reader. A peptide that inhibits this interaction will limit the proximity of the beads and thus a loss in fluorescence signal will occur. In addition to the alphascreen, a fluorescence polarization based assay with a fluorescein-labeled 14mer E1A peptide ([…] (SEQ ID NO: 1)) was also developed. Purified 6xHis-CtBP is incubated with the fluorescein-labeled E1A peptide and changes in the polarization value of the labeled peptide are detected using the EnVision plate reader. A decrease in peptide binding to CtBP can be detected by an […], and used to monitor peptide inhibition. IC50 values of designed peptides can be determined using either of these assays through the addition of increasing amounts in each well and monitoring the degree of inhibition of the CtBP-E1A interaction.
Multiple amino acid sequences may appear at positions outside the conserved peptide motif. The most frequently occurring amino acids in these positions are used to design the peptides that bind CtBP with the highest affinity. The affinity of these new peptides is compared to the original 14mer E1A peptide (SEQ ID NO:1) by comparing the IC50 of these peptides in inhibiting the CtBP/E1A protein interaction in a competition assay. The peptide identified from phage display that competes with the CtBP/E1A protein interaction better than the original 14mer E1A peptide is selected and conjugated to the cell penetrating peptide of the present invention. Also provided in Table 3 are […] for selected peptides.
The ability of peptides to inhibit CtBP binding can be monitored by two biochemical assays. An AlphaScreen assay (Perkin-Elmer) was developed that is capable of detecting the CtBP-E1A interaction. Purified GST-E1A and 6xHis-CtBP are incubated with glutathione-conjugated donor beads and nickel-chelated acceptor beads respectively. The interaction between CtBP and E1A brings the donor and acceptor beads in close proximity, which produces a fluorescence signal after laser excitation and can be detected using the EnVision plate reader. A peptide that inhibits this interaction will limit the proximity of the beads and thus a loss in fluorescence signal will occur. In addition to the alphascreen, a fluorescence polarization based assay with a fluorescein-labeled 14mer E1A peptide ([…] (SEQ ID NO: 1)) was also developed. Purified 6xHis-CtBP is incubated with the fluorescein-labeled E1A peptide and changes in the polarization value of the labeled peptide are detected using the EnVision plate reader. A decrease in peptide binding to CtBP can be detected by an […], and used to monitor peptide inhibition. IC50 values of designed peptides can be determined using either of these assays through the addition of increasing amounts in each well and monitoring the degree of inhibition of the CtBP-E1A interaction. Also provided in Table 4 are IC50 for selected peptides.

The target of assay [2] is T1, CtBP (Homo sapiens, UniProt Q13363).
T1 construct: 6xHis
Nature of the assay: Fluorescence polarization competition of unlabeled peptide with FITC-labeled 14mer peptide. The assay is classed as binding. As for the experimental part:
(§1) Additional peptides were tested for in vitro inhibitory potency (Table 5). For Kd determination, FITC-labeled peptide (FITC-peptide) was incubated with varying concentrations of CtBP. The fluorescence polarization values of the FITC-peptide were measured and plotted against CtBP concentration to determine Kd of the FITC-peptide with CtBP using the Prism program. […] For IC50 determination, a fluorescence polarization assay was utilized. […] Increasing concentrations of unlabeled peptide were added to compete with the FITC-labeled peptide, leading to a decreased fluorescence polarization value.

For assay [3], the system named is IMQ-based psoriasis model. Description: IMQ-based psoriasis model. The format is in vivo, mouse. Particulars: treated mice versus PBS control. As to the method: To elucidate the molecular mechanisms for the Pep1-E1A blocker, H&E and immunostaining for proliferative and inflammatory markers was performed.
Assay [4] has as its target T1, CtBP. Description: Fluorescence polarization Kd determination of FITC-peptide with CtBP. The assay is classed as binding. To be noted: read-out: Kd. As for the experimental part: as §1
Where [5] appears, read: IC50 value, Table 3, inhibition of CtBP/E1A protein interaction.

With `CC(C)C[C@H](NC(=O)[C@H](CC(=O)O)NC(=O)[C@H](CC(C)C)NC(=O)[C@@H]1CCCN1C(=O)[C@H](CCC(N)=O)NC(=O)CNC(=O)[C@@H]1CCCN1C(=O)[C@@H](N)CCC(=O)O)C(=O)N[C@@H](CO)C(=O)N[C@@H](CS)C(=O)N[C@@H](C)C(=O)N[C@@H](CCCNC(=N)N)C(=O)N1CCC[C@H]1C(=O)N[C@@H](CCCNC(=N)N)C(=O)O` [Peptide K239A] (H-EPGQPLDLSCARPR-OH; N-terminus and C-terminus assumed), the IC50 in assay [1] (setting [5]) amounted to 21.9 µM.
On to `CC(C)C[C@H](NC(=O)[C@H](CC(N)=O)NC(=O)[C@H](CC(C)C)NC(=O)[C@@H]1CCCN1C(=O)[C@H](CCC(=O)O)NC(=O)[C@H](CC(=O)O)NC(=O)[C@@H](NC(=O)[C@@H]1CCCN1)[C@@H](C)O)C(=O)N[C@@H](CO)C(=O)N[C@@H](CC(C)C)C(=O)N[C@@H](CCCCN)C(=O)N[C@@H](CCCNC(=N)N)C(=O)N1CCC[C@H]1C(=O)N[C@@H](CCCNC(=N)N)C(=O)O` [SEQ ID NO:134] (H-PTDEPLNLSLKRPR-OH; N-terminus and C-terminus assumed), for which, in assay [2], the IC50 is 4.4 µM.
In the case of `CC(C)C[C@H](NC(=O)[C@H](CCC(=O)O)NC(=O)[C@H](CC(=O)O)NC(=O)[C@H](CC(C)C)NC(=O)[C@@H]1CCCN1C(=O)[C@H](CCC(N)=O)NC(=O)CNC(=O)[C@@H]1CCCN1C(=O)[C@H](CCC(=O)O)NC(=O)[C@H](CCC(=O)O)NC(=O)[C@H](CC(C)C)NC(=O)[C@H](CCC(N)=O)NC(=O)[C@@H]1CCCN1C(=O)[C@@H]1CCCN1C(=O)[C@H](CCCNC(=N)N)NC(=O)[C@H](CCCNC(=N)N)NC(=O)[C@H](CCCNC(=N)N)NC(=O)[C@H](CCC(N)=O)NC(=O)[C@H](CCCNC(=N)N)NC(=O)[C@H](CCCNC(=N)N)NC(=O)[C@H](CCCCN)NC(=O)[C@H](CCCCN)NC(=O)[C@H](CCCNC(=N)N)NC(=O)CN)C(=O)N[C@@H](CS)C(=O)N[C@@H](CCCCN)C(=O)N[C@@H](CCCNC(=N)N)C(=O)N1CCC[C@H]1C(=O)N[C@@H](CCCNC(=N)N)C(=O)N[C@@H](CC(=O)O)C(=O)N[C@@H](Cc1ccc(O)cc1)C(=O)N[C@@H](CCCCN)C(=O)N[C@@H](CC(=O)O)C(=O)N[C@@H](CC(=O)O)C(=O)N[C@@H](CC(=O)O)C(=O)N[C@@H](CC(=O)O)C(=O)N[C@@H](CCCCN)C(=O)O` [Tat-E1A-Flag (LS-EL)] (H-GRKKRRQRRRPPQLEEPGQPLDELCKRPRDYKDDDDK-OH), the concentration for half-maximal inhibition (IC50) was over 200 µM in assay [1] (setting [5]) and over 200 µM in assay [1] (IC50 value, Table 4, inhibition of CtBP-E1A interaction).
Turning to EPGQPLSLSCKRPR [SEQ ID NO:135], the IC50 result in assay [2] (Table 5, 50% reduction of fluorescence polarization value) is reported as “did not inhibit CtBP”.
In turn, `CC(C)C[C@H](NC(=O)[C@H](CC(=O)O)NC(=O)[C@H](CC(C)C)NC(=O)[C@@H]1CCCN1C(=O)[C@H](CCC(N)=O)NC(=O)CNC(=O)[C@@H]1CCCN1C(=O)[C@H](CCC(=O)O)NC(=O)[C@H](CCC(=O)O)NC(=O)[C@H](CC(C)C)NC(=O)[C@H](CCC(N)=O)NC(=O)[C@@H]1CCCN1C(=O)[C@@H]1CCCN1C(=O)[C@H](CCCNC(=N)N)NC(=O)[C@H](CCCNC(=N)N)NC(=O)[C@H](CCCNC(=N)N)NC(=O)[C@H](CCC(N)=O)NC(=O)[C@H](CCCNC(=N)N)NC(=O)[C@H](CCCNC(=N)N)NC(=O)[C@H](CCCCN)NC(=O)[C@H](CCCCN)NC(=O)[C@H](CCCNC(=N)N)NC(=O)CN)C(=O)N[C@@H](CO)C(=O)N[C@@H](CS)C(=O)N[C@@H](CCC(N)=O)C(=O)N[C@@H](CCCNC(=N)N)C(=O)N1CCC[C@H]1C(=O)N[C@@H](CCCNC(=N)N)C(=O)N[C@@H](CC(=O)O)C(=O)N[C@@H](Cc1ccc(O)cc1)C(=O)N[C@@H](CCCCN)C(=O)N[C@@H](CC(=O)O)C(=O)N[C@@H](CC(=O)O)C(=O)N[C@@H](CC(=O)O)C(=O)N[C@@H](CC(=O)O)C(=O)N[C@@H](CCCCN)C(=O)O` [Tat-E1A-Flag (K239Q)] (H-GRKKRRQRRRPPQLEEPGQPLDLSCQRPRDYKDDDDK-OH; N-terminus and C-terminus assumed) gave an IC50 in assay [1] (setting [5]) of 7.7 µM.
Turning to “GSHMKETWWETWWTEWSQPKKKRKVLEEPGQPLDLSCQRPRDYKDDDDK [Pep1-E1A-Flag (K239Q) GSHM v.1]”, in assay [3], the “resistance to IMQ-induction of psoriasis” value is given as “showed resistance”.
EQTVPVDLSVARPR [SEQ ID NO:132]: the Kd in assay [4] (Table 5, FITC-peptide with CtBP) came to 2200 nM; in assay [4] (affinity to CtBP1, Example 12), 2200 nM.
As to `CC(C)C[C@H](NC(=O)[C@H](CC(=O)O)NC(=O)[C@H](CC(C)C)NC(=O)[C@@H]1CCCN1C(=O)[C@H](CCC(N)=O)NC(=O)CNC(=O)[C@@H]1CCCN1C(=O)[C@H](CCC(=O)O)NC(=O)[C@H](CCC(=O)O)NC(=O)[C@H](CC(C)C)NC(=O)[C@H](CCC(N)=O)NC(=O)[C@@H]1CCCN1C(=O)[C@@H]1CCCN1C(=O)[C@H](CCCNC(=N)N)NC(=O)[C@H](CCCNC(=N)N)NC(=O)[C@H](CCCNC(=N)N)NC(=O)[C@H](CCC(N)=O)NC(=O)[C@H](CCCNC(=N)N)NC(=O)[C@H](CCCNC(=N)N)NC(=O)[C@H](CCCCN)NC(=O)[C@H](CCCCN)NC(=O)[C@H](CCCNC(=N)N)NC(=O)CN)C(=O)N[C@@H](CO)C(=O)N[C@@H](CS)C(=O)N[C@@H](CCCCN)C(=O)N[C@@H](CCCNC(=N)N)C(=O)N1CCC[C@H]1C(=O)N[C@@H](CCCNC(=N)N)C(=O)N[C@@H](CC(=O)O)C(=O)N[C@@H](Cc1ccc(O)cc1)C(=O)N[C@@H](CCCCN)C(=O)N[C@@H](CC(=O)O)C(=O)N[C@@H](CC(=O)O)C(=O)N[C@@H](CC(=O)O)C(=O)N[C@@H](CC(=O)O)C(=O)N[C@@H](CCCCN)C(=O)O` [Tat-E1A fusion] (H-GRKKRRQRRRPPQLEEPGQPLDLSCKRPRDYKDDDDK-OH; N-terminus and C-terminus assumed), the IC50 in assay [1] (IC50 of inhibition of the CtBP/E1A interaction, FIG. 3, peptide purified from E. coli) was about 7.7 µM; in assay [1] (setting [5]), 1.7 µM.
Turning to `CC(C)C[C@H](NC(=O)[C@H](CC(=O)O)NC(=O)[C@H](CC(C)C)NC(=O)[C@@H]1CCCN1C(=O)[C@H](CCC(N)=O)NC(=O)CNC(=O)[C@@H]1CCCN1C(=O)[C@@H](N)CCC(=O)O)C(=O)N[C@@H](CO)C(=O)N[C@@H](CS)C(=O)N[C@@H](CCC(N)=O)C(=O)N[C@@H](CCCNC(=N)N)C(=O)N1CCC[C@H]1C(=O)N[C@@H](CCCNC(=N)N)C(=O)O` [Peptide K239Q] (H-EPGQPLDLSCQRPR-OH; N-terminus and C-terminus assumed), the 50% inhibitory concentration (IC50) in assay [1] (setting [5]) was found to be 12 µM.
Regarding “KETWWETWWTEWSQPKKKRKVLEEPGQPLDLSCKRPRDYKDDDDK [Pep1-E1A-Flag]”, in assay [1] (setting [5]), the IC50 is 26.6 µM.
In assay [1] (setting [5]), `CC(=O)NCCCC[C@H](NC(=O)[C@H](CS)NC(=O)[C@H](CO)NC(=O)[C@H](CC(C)C)NC(=O)[C@H](CC(=O)O)NC(=O)[C@H](CC(C)C)NC(=O)[C@@H]1CCCN1C(=O)[C@H](CCC(N)=O)NC(=O)CNC(=O)[C@@H]1CCCN1C(=O)[C@@H](N)CCC(=O)O)C(=O)N[C@@H](CCCNC(=N)N)C(=O)N1CCC[C@H]1C(=O)N[C@@H](CCCNC(=N)N)C(=O)O` [K239-Acetylated] (H-EPGQPLDLSCK(Ac)RPR-OH; N-terminus and C-terminus assumed) had an IC50 of 26.6 µM.
In assay [2], `CC(C)C[C@H](NC(=O)[C@H](CC(=O)O)NC(=O)[C@H](CC(C)C)NC(=O)[C@@H]1CCCN1C(=O)CNC(=O)[C@H](CC(=O)O)NC(=O)CNC(=O)CN)C(=O)N[C@@H](CS)C(=O)N[C@@H](CS)C(=O)N[C@@H](CCCNC(=N)N)C(=O)N[C@@H](CCCCN)C(=O)N[C@@H](CCCNC(=N)N)C(=O)N1CCC[C@H]1C(=O)O` [SEQ ID NO:133] (H-GGDGPLDLCCRKRP-OH; N-terminus and C-terminus assumed) displayed an IC50 of 18.8 µM.
